Test results from patent publication US20160296529A1, “AMINOTRIAZOLOPYRIDINE FOR USE IN THE TREATMENT OF INFLAMMATION, AND PHARMACEUTICAL COMPOSITIONS THEREOF” (priority 2012, published 2016).
Where two headings read alike, the source gives them in different places.

Tests used:
[1] = Single dose pharmacokinetics in animals, rat; assay type: in vivo, Sprague-Dawley rats
Experimental: Pharmacokinetic studies were performed in various animal species dosed with the compound according to Formula II to determine the exposure to the compound according to Formula I as well as its apparent terminal half life (T1/2), when possible. […]
Temperature was maintained at approximately 22° C., and food and water were provided ad libitum.
The compound according to […] was formulated in 0.5% methylcellulose and dosed orally to 3 or 6 animals as a single esophageal gavage at dose ranging from 15 to 180 mg/kg under a dosing volume of 5 or 10 mL/kg.
The compound according to Formula II was formulated in 0.5% methylcellulose and dosed orally to 3 animals (or 3 mouse/time points) as a single esophageal gavage at dose ranging from 15 to 45 mg/kg under a dosing volume of 5 or 10 mL/kg.
Blood samples were collected over a 24-h period via the jugular vein (dog, minipig), ear blood vessel (rabbit), cardiac puncture (mouse) or retro-orbital sinus (rat) with lithium heparin as anti-coagulant. Whole blood samples were centrifuged and the resulting plasma samples were stored at −20° C. pending analysis.
Plasma concentrations of the compound according to Formula I and of the compound according to Formula II were determined by an LC-MS/MS method with a limit of quantification ≦10.0 ng/mL for both Formula I and Formula II for all species.
Pharmacokinetic parameters were calculated using a statistical analysis package (WinNonLin (Pharsight, Sunnyvale, Calif.: CA 94086, USA).

hepatocytes of dog = experiment: In vitro metabolism study in hepatocytes, dog; assay type: in vitro ADME; conditions: dog hepatocyte suspension; 24 h incubation of 100 μM [14C]-Formula II
Experimental: Hepatocyte stability (Concentrations of the compound according to Formula II and its main metabolites (as % of total radioactivity) after 24 h incubation of 100 μM [^14C]-Compound according to Formula II in hepatocyte suspension of different species)

rat CIA model = experiment: CIA model 2 (rat collagen induced arthritis, ankle diameter); assay type: in vivo, Female Lewis rats
From the text: Female Lewis rats (n=76) that weighed 165-194 grams (mean approx. 178 g) on arthritis day 0 were obtained from Charles River Laboratories, Inc., Wilmington, Mass., (ref#393739). Animals were identified by a distinct number at the base of the tail delineating group and animal number.
Upon arrival, animals were housed 4/cage in shoe-box polycarbonate cages and acclimated for 8 days prior to being immunized with type II collagen. No concurrent medications were given.
During the acclimation and study periods, animals were housed in a laboratory environment with temperatures ranging 19-25° […]. and relative humidity of 30%-70%. Automatic timers provided 12 h of light and 12 h of dark. Animals were allowed access ad libitum to food and water.
Acclimated female Lewis rats were anesthetized with Isoflurane and receive subcutaneous/intradermal (SC/ID) injections with 300 μL of Freund's Incomplete Adjuvant (Difco, Detroit, Mich.) containing 2 mg/mL bovine type II collagen (Elastin Products, Owensville, Mo.) at the base of the tail and 2 sites on the back on day −9 and on day −3.
Collagen was prepared by making a 4 mg/mL solution in 0.01N Acetic acid. Equal volumes of collagen and Freund's incomplete adjuvant, were emulsified by hand mixing until a bead of this material holds its form when placed in water. Each animal received 300 μL of the mixture on each occasion divided over 3 subcutaneous sites on back.
On study day 1, onset of arthritis occurred and animals were randomized into treatment groups. After randomization, all cages were labelled with protocol number, group number, and animal numbers. Randomization into each group was done after ankle joint swelling was obviously established and there was good evidence of bilateral disease.
Animals with established type II collagen arthritis were treated daily (QD) by the oral (PO) route for 13 days with vehicle (methylcellulose 0.5% (w/v)), or with active compound(s) prepared in methylcellulose, 0.5% (w/v). Oral dosing was initiated on arthritis day 1 and continued daily (QD at 24 h intervals) through day 13. Animals were terminated on arthritis day 14.
The severity of the arthritis was evaluated by measuring the diameter of both ankles on the animals. Caliper measurements of ankles were taken every day beginning on day 0, with a Digitrix II micrometer (Fowler & NSK). Baseline measurements were taken using one ankle with values rounded to one-thousandth of an inch. Measurements were confirmed as clinically normal (0.260-0.264 in) by comparison with historical values for rats based on a range of body weights. Baseline measurements were then applied to both ankles, and these values remain with the animal so long as the ankle was clinically normal with good definition of all the ankle bones and no evidence of inflammation. Animals were terminated on day 14.

half-life ([1]; Sprague-Dawley, plasma, 20 mg/kg, administration of Formula I, oral, read-out: Apparent terminal half life (converted)): 7 h
AUC ([1]; Sprague-Dawley, plasma, female, Formula I 20 mg/kg single oral dose, read-out: AUC): 25.2 µg·h/mL
AUC ([1]; Sprague-Dawley, plasma, female, Formula I 60 mg/kg single oral dose, read-out: AUC): 123 µg·h/mL
AUC ([1]; Sprague-Dawley, plasma, female, Formula I 180 mg/kg single oral dose, read-out: AUC): 541 µg·h/mL
AUC ([1]; Sprague-Dawley, plasma, male, Formula I 20 mg/kg single oral dose, read-out: AUC): 19.7 µg·h/mL
AUC ([1]; Sprague-Dawley, plasma, male, Formula I 60 mg/kg single oral dose, read-out: AUC): 102 µg·h/mL
AUC ([1]; Sprague-Dawley, plasma, male, Formula I 180 mg/kg single oral dose, read-out: AUC): 376 µg·h/mL
Ratio I/II of exposure (AUC Formula I : AUC Formula II) ([1]; after Formula II 45 mg/kg oral): 0.40
AUC ([1]; male, Sprague-Dawley, plasma, after Formula II 45 mg/kg oral, read-out: exposure (expressed as AUC)): 13.3 µg·h/mL
In vitro metabolic profile of Formula II (as % of total radioactivity) (hepatocytes of dog): 5.7%
Compound: Nc1nc2cccc(-c3ccc(CN4CCS(=O)(=O)CC4)cc3)n2n1 [Formula I, 5-[4-(1,1-Dioxothiomorpholin-4-ylmethyl)-phenyl]-[1,2,4]triazolo[1,5-a]pyridin-2-ylamine]
significance to vehicle control (ANOVA) in the CIA second model (rat CIA model; group G: Formula I 25 mg/kg PO QD): mg/kg (*) (((*) = p ≦ 0.05 ANOVA to vehicle control))
ankle diameter (rat CIA model; group G: Formula I 25 mg/kg PO QD, day 0): 0.2629 inches
ankle diameter (rat CIA model; group G: Formula I 25 mg/kg PO QD, day 1): 0.2717 inches
ankle diameter (rat CIA model; group G: Formula I 25 mg/kg PO QD, day 2): 0.2747 inches
ankle diameter (rat CIA model; group G: Formula I 25 mg/kg PO QD, day 3): 0.2826 inches
ankle diameter (rat CIA model; group G: Formula I 25 mg/kg PO QD, day 4): 0.2892 inches
ankle diameter (rat CIA model; group G: Formula I 25 mg/kg PO QD, day 5): 0.2973 inches
ankle diameter (rat CIA model; group G: Formula I 25 mg/kg PO QD, day 6): 0.3064 inches
ankle diameter (rat CIA model; group G: Formula I 25 mg/kg PO QD, day 7): 0.3108 inches
ankle diameter (rat CIA model; group G: Formula I 25 mg/kg PO QD, day 8): 0.3150 inches
ankle diameter (rat CIA model; group G: Formula I 25 mg/kg PO QD, day 9): 0.3089 inches
ankle diameter (rat CIA model; group G: Formula I 25 mg/kg PO QD, day 10): 0.3046 inches
ankle diameter (rat CIA model; group G: Formula I 25 mg/kg PO QD, day 11): 0.3025 inches
ankle diameter (rat CIA model; group G: Formula I 25 mg/kg PO QD, day 12): 0.3006 inches
ankle diameter (rat CIA model; group G: Formula I 25 mg/kg PO QD, day 13): 0.2996 inches
ankle diameter (rat CIA model; group G: Formula I 25 mg/kg PO QD, day 14): 0.3016 inches
significance to vehicle control (ANOVA) in the CIA second model (rat CIA model; group H: Formula I 50 mg/kg PO QD): mg/kg (*) (((*) = p ≦ 0.05 ANOVA to vehicle control))
ankle diameter (rat CIA model; group H: Formula I 50 mg/kg PO QD, day 0): 0.2624 inches
ankle diameter (rat CIA model; group H: Formula I 50 mg/kg PO QD, day 1): 0.2718 inches
ankle diameter (rat CIA model; group H: Formula I 50 mg/kg PO QD, day 2): 0.2705 inches
ankle diameter (rat CIA model; group H: Formula I 50 mg/kg PO QD, day 3): 0.2814 inches
ankle diameter (rat CIA model; group H: Formula I 50 mg/kg PO QD, day 4): 0.2886 inches
ankle diameter (rat CIA model; group H: Formula I 50 mg/kg PO QD, day 5): 0.2970 inches
ankle diameter (rat CIA model; group H: Formula I 50 mg/kg PO QD, day 6): 0.3061 inches
ankle diameter (rat CIA model; group H: Formula I 50 mg/kg PO QD, day 7): 0.3110 inches
ankle diameter (rat CIA model; group H: Formula I 50 mg/kg PO QD, day 8): 0.3160 inches
ankle diameter (rat CIA model; group H: Formula I 50 mg/kg PO QD, day 9): 0.3085 inches
ankle diameter (rat CIA model; group H: Formula I 50 mg/kg PO QD, day 10): 0.3032 inches
ankle diameter (rat CIA model; group H: Formula I 50 mg/kg PO QD, day 11): 0.3041 inches
ankle diameter (rat CIA model; group H: Formula I 50 mg/kg PO QD, day 12): 0.3039 inches
ankle diameter (rat CIA model; group H: Formula I 50 mg/kg PO QD, day 13): 0.3014 inches
ankle diameter (rat CIA model; group H: Formula I 50 mg/kg PO QD, day 14): 0.2999 inches
